We go through one compound from paper PMC8157322, “Gd(III)–Pt(IV) theranostic contrast agents for tandem MR imaging and chemotherapy” (Chemical Science, 2020).

Data set [1] can be described thus: Relaxivity after incubation in 5 mM GSH in PBS. In kind it is physicochemical. As to conditions: 1.41 T, PBS with 5 mM glutathione, 37 °C. As for the experimental part:
This is possibly due to an increase in the rotational correlation time (τR) or a change in the inner sphere hydration number (q) of Gd(III). The differences in relaxivity of GP1 and GP2 compared to 1 offers the possibility of monitoring reduction of the agents by MR at both high and low field strength. To test this, GP1, GP2, and 1 were incubated in 5 mM GSH in PBS and the relaxivity was measured (see ESI ^†). The relaxivity of each converged to the same value (r1 of 4.4, 4.5, and 4.6 mM^−1 s^−1 for 1, GP1, and GP2 respectively), indicating the same Gd(III) species was formed after reduction. The significant change in r1 upon reduction of GP1 and GP2 theoretically could be used to monitor intracellular reduction by MR. However, further testing needs to be done to determine if these agents are suitable for this application.
(§1) Fig. S2 Graph of r1 of (A) GP1 measured at 1.41 T (B) GP1 measured at 7 T (C) GP2 measured at 1.41 T
(D) GP2 measured at 7 T (E) 1 measured at 1.41 T (F) 1 measured at 7 T. All measurements were taken
in PBS at 37 °C (G) 1 measured at 1.41 T with 5 mM GSH (H) GP1 measured at 1.41 T with 5 mM GSH
and (I) GP2 measured at 1.41 T with 5 mM GSH.
(§2) Table S1. r1 of GP1, GP2, and 1 in PBS with 5 mM glutathione at 37 °C
(§3) GP1 (5 mM GSH) GP2 (5 mM GSH) 1 (5 mM GSH)

For a further data set, the system named is HeLa cells. The data set can be described thus: Cell viability assay (CellTiter-Glo 2.0). In kind it is cell-based. As to conditions: 48 h incubation. The procedure: (§4) To assess the cytotoxicity of GP1 and GP2in vitro, cell viability assays were performed to determine the IC50 concentrations in three cancer cell lines (A2780, HeLa, and MCF-7). Table 2 summarizes the IC50 concentrations of both agents compared to those of cisplatin and carboplatin. […] For all cell lines, GP1 was less toxic than cisplatin but followed the same trend of highest toxicity in A2780 cells and least toxic in MCF-7 cells. GP1 releases cisplatin intracellularly, therefore the apparent difference in toxicity of the two is likely due to decreased cell permeability of GP1 caused by the Gd(III) complex. However, because GP1 is inert in the extracellular matrix, higher doses can be safely administered to account for the decreased cell permeability. […]
(§5) lines were grown in a humidified incubator at 37 °C and 5% CO2 and were harvested using 0.25% TrypLE. Cells were grown for 24 hours after plating before each experiment. All solutions were filtered through […] sterile filters before use.
(§6) Viability Assays. A2780, HeLa, and MCF-7 cells were plated at a density of 3,000 cells per well (100 µL) in an opaque white 96-well plate. Cells were dosed with 100 µL of solutions of GP1, GP2, cisplatin, or carboplatin in MEM and incubated for 48 hours (GP1 or cisplatin) or 72 hours (GP2 or carboplatin). After incubation, 50 µL CellTiter-Glo 2.0 (Promega, Madison, WI) was added to each well and the assay was carried out following the manufacturer’s protocol.
(§7) Luminescence of the wells was measured using a Synergy H1 microplate reader (BioTek, Winooski, VT). Viability was determined by comparing luminescence readings of the cells treated with agent to untreated control cells. […]
A general note: Cellular ATP, detected with luciferase, serves as a proxy for viable cell number.

A further data set has as its system A2780 cells. Kind of data set: Cell viability assay (CellTiter-Glo 2.0). In kind it is cell-based. The conditions noted are these: A2780, 48 h incubation. The procedure: as §4, §5, §6, §7
A further data set relates to MCF-7 cells. Kind of data set: Cell viability assay (CellTiter-Glo 2.0). In kind it is cell-based. The conditions noted are these: MCF-7, 48 h incubation. As for the experimental part: as §4, §5, §6, §7
Data set [2] is described as follows: Aqueous solubility (qualitative). It is filed as physicochemical. The conditions noted are these: aqueous solutions / solvents.
Data set [3] is described as follows: T1/T2 relaxivity measurements in PBS. It is filed as physicochemical. The conditions noted are these: 37 °C. As for the experimental part:
The T1 relaxivity (r1) and T2 relaxivity (r2) of 1, GP1, and GP2 were measured at both low (1.41 T) and high (7 T) magnetic field strength in phosphate-buffered saline (PBS) to quantify how well they behave as MR contrast agents. […] The relaxivity values for 1 are well within the range of what is expected for a small molecule Gd(III) complex.[34] […] At 7 T, there was little change in r1 for both agents, while both r2 values increased, as expected. […]
solution. These capillaries were imaged using a Bruker PharmaScan 7 T MR imaging spectrometer (Bruker BioSpin, Billerica, MA, USA). T1 relaxation times were measured using a rapid-acquisition rapid-echo (RARE-VTR) T1-map pulse sequence with static TE (10 ms) and […]
parameters were as follows: field of view (FOV) = 25 x 25 mm2, matrix size (MTX) = 256 x 256, number of axial slices = 5, slice thickness (SI) = 1.0 mm, and averages (NEX) = 4. T1 analysis was carried out using the image sequence analysis tool in Paravision 5.0 pl2 software (Bruker, Billerica, MA, USA) with monoexponential curve-fitting of image intensities of selected regions of interest (ROIs) for each axial slice. […]
as §1
(D) GP2 measured at 7 T (E) 1 measured at 1.41 T (F) 1 measured at 7 T. All measurements were taken in PBS at 37 °C (G) 1 measured at 1.41 T with 5 mM GSH (H) GP1 measured at 1.41 T with 5 mM GSH and (I) GP2 measured at 1.41 T with 5 mM GSH.
as §2, §3

What is called IC50 is the midpoint of a concentration-inhibition curve.

Molecules are shown by their SMILES.

Consider `[NH2][Pt]([NH2])([OH])([Cl])([Cl])[O]C(=O)CCCCCN1CCN2CCN3CCN(CC1)CC(=O)[O][Gd]([O]C(=O)C2)[O]C(=O)C3` [GP1], for which, in data set [1], the “r1 with 5 mM GSH” value was 4.5 mM⁻¹ s⁻¹. Also, the IC50 in the data set on HeLa cells is 49.3 ± 1.3 µM; in the data set on A2780 cells it was 29.8 ± 2.5 µM; in the data set with MCF-7 cells it was 113 ± 4 µM. Moreover, the Solubility result in data set [2] is given as “readily soluble in aqueous solutions”. In addition, the “r1 (T1 relaxivity)” value was 7.0 mM⁻¹ s⁻¹ in data set [3] (1.41 T) and 7.1 mM⁻¹ s⁻¹ in data set [3] (7 T).
